Reference: publication PMC3563301 (Journal of medicinal chemistry, 2012)

Tests used:
U87MG cells [1] = experiment: Loss of mitochondrial potential; format: cell-based, human; conditions: 30 μM, 24 h, JC-1
[2] = tested on: HeLa, HT29, A549, HCT 116, and HCT 15 cell lines; experiment: Average growth inhibition over five cell lines; format: cell-based; conditions: Homo sapiens, read-out: average IC50 for the five cell lines, HeLa, HT-29, A549, HCT 116, HCT 15; for comparative purposes
CYP2D6 = CYP2D6 (Homo sapiens, UniProt P10635); experiment: CYP450 inhibition, CYP2D6; format: biochemical; conditions: recombinant CYP2D6 (Supersomes, Gentest), pH 7.4
Sequence of CYP2D6 (P10635 whole entry): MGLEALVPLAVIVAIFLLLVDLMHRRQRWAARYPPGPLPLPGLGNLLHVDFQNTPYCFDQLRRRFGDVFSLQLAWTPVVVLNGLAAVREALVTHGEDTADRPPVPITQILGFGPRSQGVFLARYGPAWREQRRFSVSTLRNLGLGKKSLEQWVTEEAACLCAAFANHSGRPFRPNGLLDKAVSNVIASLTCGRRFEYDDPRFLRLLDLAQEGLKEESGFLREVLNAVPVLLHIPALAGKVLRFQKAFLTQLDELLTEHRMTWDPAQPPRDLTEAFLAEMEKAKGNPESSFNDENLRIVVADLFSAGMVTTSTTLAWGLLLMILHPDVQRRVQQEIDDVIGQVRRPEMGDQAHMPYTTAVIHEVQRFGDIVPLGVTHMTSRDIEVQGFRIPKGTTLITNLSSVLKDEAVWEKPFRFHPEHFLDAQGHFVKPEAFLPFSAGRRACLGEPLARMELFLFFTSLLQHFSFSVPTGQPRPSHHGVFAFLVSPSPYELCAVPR

OVCAR-8 = experiment: Growth inhibition of OVCAR-8 cells; format: cell-based; conditions: Homo sapiens, OVCAR-8, 96 h, read-out: IC50 ± SD OVCAR-8
Caco-2 cell permeability = format: in vitro ADME; conditions: human
U87MG cells [3] = experiment: ROS generation; format: cell-based, human; conditions: 400 mM H2O2, 1 h treatment

Structure (SMILES): N#CC(C#N)=NNc1cccc(Cl)c1 [CCCP, carbonyl cyanide m-chlorophenylhydrazone]
- mitochondrial potential dissipation (U87MG cells [1]): about 50%

Structure (SMILES): COc1ccc(/C=C\c2cc(OC)c(OC)c(OC)c2)cc1O [Compound 2, combretastatin A-4]
- IC50 [2]: > 2030 nM

Structure (SMILES): COc1cc(Sc2c(-n3ccnc3)[nH]c3ccccc23)cc(OC)c1OC [Compound 18, 2-(1H-Imidazol-1-yl)-3-((3,4,5-trimethoxyphenyl)thio)-1H-indole]
- inhibition at 30 min, 1 µM (CYP2D6): < 50%

Structure (SMILES): COc1cc(Sc2c(-n3cncn3)[nH]c3ccccc23)cc(OC)c1OC [Compound 20, 2-(1H-1,2,4-Triazol-1-yl)-3-((3,4,5-trimethoxyphenyl)thio)-1H-indole]
- inhibition at 30 min, 1 µM (CYP2D6): < 50%

Structure (SMILES): COc1cc(Sc2c(-c3cccnc3)[nH]c3ccccc23)cc(OC)c1OC [Compound 55, 2-(Pyridin-3-yl)-3-((3,4,5-trimethoxyphenyl)thio)-1H-indole]
- inhibition at 30 min, 1 µM (CYP2D6): < 50%

Structure (SMILES): COc1cc(Sc2c(-c3ccncc3)[nH]c3ccccc23)cc(OC)c1OC [Compound 57, 2-(Pyridin-4-yl)-3-((3,4,5-trimethoxyphenyl)thio)-1H-indole]
- inhibition at 30 min, 1 µM (CYP2D6): < 50%

Structure (SMILES): CC(=O)O[C@H]1C(=O)[C@@]2(C)[C@H]([C@H](OC(=O)c3ccccc3)[C@]3(O)C[C@H](OC(=O)[C@H](O)[C@@H](NC(=O)c4ccccc4)c4ccccc4)C(C)=C1C3(C)C)[C@]1(OC(C)=O)CO[C@@H]1C[C@@H]2O [PTX, paclitaxel]
- IC50 [2]: 23 nM

Structure (SMILES): CC[C@]1(O)C[C@@H]2CN(CCc3c([nH]c4ccccc34)[C@@](C(=O)OC)(c3cc4c(cc3OC)N(C)[C@H]3[C@@](O)(C(=O)OC)[C@H](OC(C)=O)[C@]5(CC)C=CCN6CC[C@]43[C@@H]65)C2)C1 [VBL, vinblastine]
- IC50 [2]: 17 nM
- IC50 (OVCAR-8): 15 ± 7 nM

Structure (SMILES): CN/C(=N/CCSCc1nc[nH]c1C)NC#N [cimetidine]
- Papp A→B at 2 h, 10 μM (Caco-2 cell permeability): 0.11 ×10⁻⁶ cm/s
- Papp B→A at 2 h, 10 μM (Caco-2 cell permeability): 2.13 ×10⁻⁶ cm/s

Structure (SMILES): OO [hydrogen peroxide]
- ROS, fluorescence intensity with respect to control (U87MG cells [3]): 208%
